Measurements as given in patent US20040242590A1, “Pharmaceutical composition comprising gamma-butyrobetaine” (priority 2001, published 2004).
Entries after “also recorded” stand apart in the source; their conditions may differ. Where a name gives a salt, the structure may show the parent alone.

Assays:
[1] = tested on: intracorporeal pressure (corpus cavernosum penis); test: intracorporeal pressure in narcotized rats, intracavernous injection; assay type: in vivo; conditions: for Increase of intracorporeal pressure, % of papaverine: in % of the increase produced by papaverine
Method: (§1) The influence of the experimental substances on the penile erection was evaluated using the experimental model, where changes of intracorporeal pressure was measured (Chen K K et al. J Urol, 1992;147:1124). Rats were anesthetized by sodium pentobarbital (50 mg/kg i.p. plus additionally 8 mg/kg/h i.v.). Body temperature was kept at 37-37.4° C. (rectal control) by heating lamp. Endotracheal tube was inserted to assure adequate respiration under anesthesia. Number 25 needle filled with heparinized saline was connected to pressure transducer and introduced into corpus cavernosum penis. Intracavernous pressure and II standard lead on an ECG was continuously recorded on physiograph DMP-4B (Narco Bio-Systems, USA). In some experiments arterial pressure in common carotid artery was also recorded. The effects of experimental substances were determined both at intravenous and intracavernous introduction route. For the intracorporeal injection the substances were dissolved in isotonic (0.9%) NaCl solution and the dose introduced in 0.05 ml of liquid. […] Gamma-butyrobetaine (GBB) was introduced separately and in combination with THP or phosphodiesterase inhibitor, in particular, sildenafil. Gamma-butyrobetaine (GBB) (intracavernous injection 0.02-0.1 mg per rat, usually 0.05 mg per rat; intravenously 2.0 mg/kg) and THP (intracavernous injection 0.2 mg per rat; intravenously 10.0 mg/kg) were introduced separately and as combination (GBB+THP).

[2] = tested on: intracavernous pressure (corpus cavernosum penis); test: intracavernous pressure in narcotized rats, intravenous injection; assay type: in vivo; conditions: for Duration of effect / Changes of intracavernous pressure / Reflectory increase of intracavernous pressure: intravenously: GBB 2.0 mg/kg, THP 10.0 mg/kg, sildenafil 3.0 mg/kg, papaverine 2.0 mg/kg; for effect on intracorporeal pressure (in words): intravenous
Method: as §1, with “Adult male rats, weighing 300-410 g were used. The influence” for “The influence”, “combination (GBB+THP). […] Since the intracavernous injection is not popular due to inconvenience to patient, intravenous route was selected for further evaluation.” for “combination (GBB+THP).”

[3] = tested on: copulating activity of male rats; test: rat copulating behaviour in state of physiological depression; assay type: in vivo, Wistar rats
Method: The pharmacological effects of GBB, THP and their combination on the sexual activity of mammals was investigated by a model based on rat copulating behaviour in state of physiological depression.
Experiments were conducted on adult Wistar rats of both sexes with initial body weight of 300-330 g. During the experiment, the animals were kept in standard crates in groups of 6. The feed was a standartized diet R70 (LABFOR, Lactamin AB, Sweden). The room temperature was kept at 21-23° C., relative humidity at 65±10%, 12 hour light/darkness cycle. During one week before the experiment it was established that the average water consumption by the rats was 8.2-12% (average —10%) of their body mass.
Male rats were distributed randomly into 4 groups, each of 6 animals, and supplied for 6 weeks with the following aqueous solutions:
Group 1 (Control Group)—ding water without any additives;
Group 2 (GBB Group)—drinking water was supplemented by gamma-butyrobetaine (0.015% by weight), resulting in the average daily gamma-butyrobetaine intake of 15 mg/kg;
Group 3 (THP Group)—drinking water was supplemented by THP (0.06% by weight), resulting in the average daily THP intake of 60 mg/kg;
Group 4 (GBB+THP Group)—drinking water was supplemented by THP (0.06% by weight) and gamma-butyrobetaine (0.015% by weight), resulting in the average daily […]) intake of 60 mg/kg and gamma-butyrobetaine intake of 15 mg/kg.
The copulating activity of male rats was tested four times: after one week, after four weeks, after six weeks and 48-50 hours after the discontinuation of substance intake, when all animals were receiving drinking water without additives.
The tests were conducted between 10 and 12 a.m. 6 male rats of one group were placed into a clean, well illuminated crate (box). After 5 min. adaptation period 2 female rats were placed into the box for 10 minutes. For each male rat the following data were collected:
1) copulating intensity (number of copulations during the exposition period);
3) postcoital period—the behaviour of male rats during 5 min. period after the removal of females. The postcoital behaviour was characterized by following marks: 0—the animal is passive, lays down; 1—the rat is quiet; grooming; 2—the rat is mobile, rutting; 3—the animal is active, aggressive.
The female rats used were in the estrus phase, induced by i.p. injection of 0.2 ml 0.1% estradiol dipropionate 48 h before the test.

[4] = subc.; cited from earlier work
[5] = 1 week of therapy, drinking water, GBB 15 mg/kg daily, THP 60 mg/kg daily
[6] = 1 week of therapy, drinking water, GBB 15 mg/kg daily, THP 60 mg/kg daily, 10 min exposition
[7] = 4 weeks of therapy, behaviour marks 0-3
[8] = 4 weeks of therapy, drinking water, GBB 15 mg/kg daily, THP 60 mg/kg daily
[9] = 6 weeks of therapy, behaviour marks 0-3
[10] = 6 weeks of therapy, drinking water, GBB 15 mg/kg daily, THP 60 mg/kg daily
[11] = Post-therapy (48-50 hours after discontinuation)
[12] = Post-therapy (48-50 hours after discontinuation), behaviour marks 0-3

Structure (SMILES) | Duration of effect [2] [min] | delay time before attempts of mounting [3, 5] [min] | number of copulations [3, 6] | rat post-coital agitation period [3, 7] | number of copulations [3, 8] | number of mounting attempts of male rats [3, 8] | rat post-coital agitation period [3, 9] | delay time before attempts of mounting [3, 10] [min] | number of mounting attempts of male rats [3, 10] | delay time before attempts of mounting [3, 11] [min] | number of copulations [3, 11] | number of mounting attempts of male rats [3, 11] | rat post-coital agitation period [3, 12] | effect on intracorporeal pressure (in words) [1] | Increase of intracorporeal pressure, % of papaverine ([1]; dose 0.2 mg per rat) [%] | effect on intracorporeal pressure (in words) [2] | Changes of intracavernous pressure [2] [mm Hg] | Reflectory increase of intracavernous pressure [2] [mm Hg] | also measured
CCCc1nn(C)c2c(=O)[nH]c(-c3cc(S(=O)(=O)N4CCN(C)CC4)ccc3OCC)nc12 [Sildenafil, sildenafil] | 2.5 ± 1.1 |  |  |  |  |  |  |  |  |  |  |  |  |  |  |  |  |  | Duration of effect ([1]; dose 0.15 mg per rat): 7.5 ± 2.7 min; Increase of intracorporeal pressure ([1]; dose 0.15 mg per rat): 38.5 ± 7.3 mmHg; Increase of intracorporeal pressure, % of papaverine ([1]; dose 0.15 mg per rat): 104.8%
C[N+](C)(C)NCCC(=O)[O-] [THP, 3-(2,2,2-trimethylhydrazinium)propionate] | 0.9 ± 0.5 | 5.3 ± 1.0 | 0.5 ± 0.3 | 1.4 ± 0.5 | 1.2 ± 0.4 | 3.0 ± 0.7 | 1.8 ± 0.3 | 2.3 ± 0.5 | 3.7 ± 0.5 | 2.4 ± 0.7 | 1.0 ± 0.3 | 3.4 ± 0.7 | 1.2 ± 0.4 | did not produce significant changes | 7.3 | little effect | 1.3 ± 0.9 | 2.7 ± 1.2 | rat post-coital agitation period ([3]; 1 week of therapy, behaviour marks 0-3 during 5 min after removal of females): 1.0 ± 0.4; number of mounting attempts of male rats [3, 6]: 2.7 ± 0.6; delay time before attempts of mounting [3, 8]: 2.1 ± 0.5 min; number of copulations [3, 10]: 0.8 ± 0.3
C[N+](C)(C)CCCC(=O)[O-] [GBB, gamma-butyrobetaine] | 2.8 ± 0.7 | 3.7 ± 0.9 | 0.8 ± 0.3 | 1.2 ± 0.3 | 1.3 ± 0.5 | 3.7 ± 0.7 | 1.5 ± 0.4 | 2.8 ± 0.9 | 3.3 ± 0.6 | 2.6 ± 0.6 | 0.7 ± 0.2 | 3.2 ± 0.5 | 1.2 ± 0.3 | pronounced dose-dependent, but relatively short-termed increase; also recorded: inferior to that of papaverine |  | highly efficient |  |  | Increase of intracorporeal pressure, % of papaverine ([1]; dose 0.02 mg per rat): 30.6%; Increase of intracorporeal pressure ([1]; dose 0.05 mg per rat): 31.5 ± 5.1 mmHg; Increase of intracorporeal pressure, % of papaverine ([1]; dose 0.05 mg per rat): 85.7%; LD50 [4]: 7000 mg/kg
COc1ccc(Cc2nccc3cc(OC)c(OC)cc23)cc1OC [Papaverine, Papaverine hydrochloride] | 0.9 ± 0.9 |  |  |  |  |  |  |  |  |  |  |  |  |  | 100 | little effect | 0.6 ± 0.6 | 0.3 ± 0.3 | Duration of effect ([1]; dose 0.2 mg per rat): 8.8 ± 1.4 min; Increase of intracorporeal pressure ([1]; dose 0.2 mg per rat): 36.75 ± 4.1 mmHg
